# Target: T1, CrSQS (Chlamydomonas reinhardtii, UniProt A0A2K3DXC5)
# T1 construct: gene CHLRE_03g175250v5; Met-1 to Asp-397, C-terminal 64 residues (transmembrane region) removed; C-terminal 6xHis (pET-21b), E. coli BL21(DE3), TALON purified, 46 kDa
# Assay: radiolabel TLC assay of squalene formation
# Format: biochemical
# Settings: 25 uM (1-14C) FPP, 2.5 mM NADPH, 5 mM MgCl2 or 2 mM MnCl2, pH 7.4, 30 °C; labelled compound; 2.5 mM NADPH (with glucose-6-phosphate dehydrogenase regeneration) against no NADPH
# T1 sequence (A0A2K3DXC5 entry or part of it): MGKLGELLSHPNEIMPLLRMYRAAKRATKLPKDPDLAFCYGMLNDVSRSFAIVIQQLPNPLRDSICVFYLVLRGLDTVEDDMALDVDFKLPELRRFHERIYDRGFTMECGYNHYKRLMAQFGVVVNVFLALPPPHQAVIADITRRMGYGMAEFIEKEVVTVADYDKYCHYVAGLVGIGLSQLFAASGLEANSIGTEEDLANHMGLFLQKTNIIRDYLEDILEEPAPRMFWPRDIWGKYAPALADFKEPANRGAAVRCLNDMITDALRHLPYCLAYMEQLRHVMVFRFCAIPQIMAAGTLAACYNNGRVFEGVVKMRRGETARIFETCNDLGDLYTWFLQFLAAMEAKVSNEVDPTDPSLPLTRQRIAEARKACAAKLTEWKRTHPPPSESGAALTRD
smiles,measurement,value
NC(=O)C1=CN([C@@H]2O[C@H](COP(=O)(O)OP(=O)(O)OC[C@H]3O[C@@H](n4cnc5c(N)ncnc54)[C@H](OP(=O)(O)O)[C@@H]3O)[C@@H](O)[C@H]2O)C=CC1 [NADPH],radiolabel TLC assay of squalene formation,"When NADPH was removed, radiolabeled squalene was not detected in any sample"
